Experimental data as given in ChEMBL document CHEMBL2086329, “Design and synthesis of potent, selective inhibitors of matriptase” (ACS Med Chem Lett, 2012).
Active and inactive are the calls of the source. No cut-off for these calls is given here. Where a SMILES comes first, the peptide text is derived from it. The star is where a group is joined. CH2Cl = ClC*

Legend:
[1] = biological target: T1, Suppressor of tumorigenicity 14 protein (Homo sapiens, UniProt Q9Y5Y6); test: Tight binding inhibition of human matriptase expressed in Drosophila melanogaster S2 cells using Boc-QAR-AMC as substrate incubated for 15 mins prior to substrate addition measured for 30 mins by fluorimetric analysis
T1 sequence (Q9Y5Y6 whole entry): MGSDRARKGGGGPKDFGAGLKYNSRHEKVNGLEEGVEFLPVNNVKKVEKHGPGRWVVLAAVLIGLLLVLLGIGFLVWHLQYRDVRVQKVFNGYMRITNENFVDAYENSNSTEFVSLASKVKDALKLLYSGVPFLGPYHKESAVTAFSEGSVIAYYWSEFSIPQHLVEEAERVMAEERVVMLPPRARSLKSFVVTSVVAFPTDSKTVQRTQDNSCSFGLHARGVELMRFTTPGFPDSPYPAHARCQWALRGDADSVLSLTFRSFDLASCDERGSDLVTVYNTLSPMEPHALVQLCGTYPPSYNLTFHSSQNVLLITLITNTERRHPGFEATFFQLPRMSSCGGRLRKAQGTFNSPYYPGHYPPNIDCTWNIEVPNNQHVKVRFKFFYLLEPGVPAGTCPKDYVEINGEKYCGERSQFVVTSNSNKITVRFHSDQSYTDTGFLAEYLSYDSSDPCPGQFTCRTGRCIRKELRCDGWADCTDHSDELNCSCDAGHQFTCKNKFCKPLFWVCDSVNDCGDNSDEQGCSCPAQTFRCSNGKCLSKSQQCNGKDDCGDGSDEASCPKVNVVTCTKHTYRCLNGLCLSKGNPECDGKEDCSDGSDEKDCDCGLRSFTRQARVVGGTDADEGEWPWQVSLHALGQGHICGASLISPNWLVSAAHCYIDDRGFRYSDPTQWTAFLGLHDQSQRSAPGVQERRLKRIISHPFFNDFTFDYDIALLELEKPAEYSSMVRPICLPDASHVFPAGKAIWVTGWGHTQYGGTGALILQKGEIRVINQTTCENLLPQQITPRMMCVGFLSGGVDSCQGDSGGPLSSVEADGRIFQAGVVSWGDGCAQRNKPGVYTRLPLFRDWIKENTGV

[2] = biological target: T2, Suppressor of tumorigenicity 14 protein (Homo sapiens) (UniProt Q9Y5Y6); test: Irreversible inhibition of human matriptase expressed in Drosophila melanogaster S2 cells using Boc-QAR-AMC as substrate incubated for 20 mins prior to substrate addition measured for 75 mins by fluorimetric analysis
T2 sequence (whole entry): T1 sequence (Q9Y5Y6 whole entry)

Furin (Homo sapiens) = Furin (Homo sapiens) (UniProt P09958); test: Inhibition of human furin expressed in Drosophila melanogaster S2 cells using Boc-RRVR-AMC as substrate at 10 uM
[3] = biological target: T3, Transmembrane protease serine 6 (Homo sapiens, UniProt Q8IU80); test: Tight binding inhibition of human matriptase2 expressed in Drosophila melanogaster S2 cells using Boc-QAR-AMC as substrate incubated for 15 mins prior to substrate addition measured for 30 mins by fluorimetric analysis
T3 sequence (Q8IU80 whole entry): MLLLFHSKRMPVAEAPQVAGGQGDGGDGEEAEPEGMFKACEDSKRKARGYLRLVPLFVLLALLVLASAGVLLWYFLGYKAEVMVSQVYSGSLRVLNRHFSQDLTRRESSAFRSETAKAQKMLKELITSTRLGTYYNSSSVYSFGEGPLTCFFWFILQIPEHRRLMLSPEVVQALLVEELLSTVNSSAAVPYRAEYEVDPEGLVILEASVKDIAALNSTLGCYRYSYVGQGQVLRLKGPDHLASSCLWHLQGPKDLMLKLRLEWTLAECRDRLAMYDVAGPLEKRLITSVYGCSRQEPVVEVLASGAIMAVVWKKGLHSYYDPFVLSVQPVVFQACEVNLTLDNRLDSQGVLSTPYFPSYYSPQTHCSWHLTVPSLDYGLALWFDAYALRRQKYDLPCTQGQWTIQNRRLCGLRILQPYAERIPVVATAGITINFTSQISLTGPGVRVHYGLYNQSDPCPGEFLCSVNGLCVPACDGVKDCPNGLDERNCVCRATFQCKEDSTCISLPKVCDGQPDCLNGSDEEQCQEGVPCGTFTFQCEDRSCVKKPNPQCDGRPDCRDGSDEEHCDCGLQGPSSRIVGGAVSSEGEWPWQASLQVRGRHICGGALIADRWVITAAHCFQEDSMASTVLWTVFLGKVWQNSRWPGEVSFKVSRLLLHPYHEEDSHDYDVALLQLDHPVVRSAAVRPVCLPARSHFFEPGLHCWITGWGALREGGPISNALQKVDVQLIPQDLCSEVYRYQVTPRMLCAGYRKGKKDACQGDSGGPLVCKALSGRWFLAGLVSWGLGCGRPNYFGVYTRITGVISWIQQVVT

Prothrombin = Prothrombin (Homo sapiens, UniProt P00734); test: Mixed inhibition of human thrombin expressed in Drosophila melanogaster S2 cells using Boc-QAR-AMC as substrate by fluorimetric analysis
[4] = biological target: T4, Transmembrane protease serine 11D (Homo sapiens, UniProt O60235); test: Tight binding inhibition of human TMPRSS11D expressed in Drosophila melanogaster S2 cells using Boc-QAR-AMC as substrate incubated for 15 mins prior to substrate addition measured for 30 mins by fluorimetric analysis
T4 sequence (O60235 whole entry): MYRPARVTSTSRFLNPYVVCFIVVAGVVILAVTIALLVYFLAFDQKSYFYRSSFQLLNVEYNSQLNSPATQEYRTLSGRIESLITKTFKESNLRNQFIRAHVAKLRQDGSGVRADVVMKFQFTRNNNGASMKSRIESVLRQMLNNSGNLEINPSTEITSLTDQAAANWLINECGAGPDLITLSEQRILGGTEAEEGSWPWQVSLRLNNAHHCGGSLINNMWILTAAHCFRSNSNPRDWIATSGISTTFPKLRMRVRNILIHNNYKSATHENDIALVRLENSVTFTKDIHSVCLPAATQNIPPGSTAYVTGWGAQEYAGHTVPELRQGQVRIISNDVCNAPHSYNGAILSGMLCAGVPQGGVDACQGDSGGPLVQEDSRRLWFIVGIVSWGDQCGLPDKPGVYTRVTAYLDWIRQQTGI

Trypsin = Trypsin (Homo sapiens, UniProt P07477+P07478+P35030); test: Tight binding inhibition of human trypsin expressed in Drosophila melanogaster S2 cells using Boc-QAR-AMC as substrate incubated for 15 mins prior to substrate addition measured for 30 mins by fluorimetric analysis
[5] = biological target: T2, Suppressor of tumorigenicity 14 protein (Homo sapiens); conditions: S2, 2.5 nM
Description: Inhibition of human matriptase expressed in Drosophila melanogaster S2 cells using Boc-QAR-AMC as substrate at 2.5 nM by fluorimetric analysis

[6] = biological target: T1, Suppressor of tumorigenicity 14 protein; test: Mixed inhibition of human matriptase expressed in Drosophila melanogaster S2 cells using Boc-QAR-AMC as substrate by fluorimetric analysis

Furin (Homo sapiens), sequence (P09958 whole entry): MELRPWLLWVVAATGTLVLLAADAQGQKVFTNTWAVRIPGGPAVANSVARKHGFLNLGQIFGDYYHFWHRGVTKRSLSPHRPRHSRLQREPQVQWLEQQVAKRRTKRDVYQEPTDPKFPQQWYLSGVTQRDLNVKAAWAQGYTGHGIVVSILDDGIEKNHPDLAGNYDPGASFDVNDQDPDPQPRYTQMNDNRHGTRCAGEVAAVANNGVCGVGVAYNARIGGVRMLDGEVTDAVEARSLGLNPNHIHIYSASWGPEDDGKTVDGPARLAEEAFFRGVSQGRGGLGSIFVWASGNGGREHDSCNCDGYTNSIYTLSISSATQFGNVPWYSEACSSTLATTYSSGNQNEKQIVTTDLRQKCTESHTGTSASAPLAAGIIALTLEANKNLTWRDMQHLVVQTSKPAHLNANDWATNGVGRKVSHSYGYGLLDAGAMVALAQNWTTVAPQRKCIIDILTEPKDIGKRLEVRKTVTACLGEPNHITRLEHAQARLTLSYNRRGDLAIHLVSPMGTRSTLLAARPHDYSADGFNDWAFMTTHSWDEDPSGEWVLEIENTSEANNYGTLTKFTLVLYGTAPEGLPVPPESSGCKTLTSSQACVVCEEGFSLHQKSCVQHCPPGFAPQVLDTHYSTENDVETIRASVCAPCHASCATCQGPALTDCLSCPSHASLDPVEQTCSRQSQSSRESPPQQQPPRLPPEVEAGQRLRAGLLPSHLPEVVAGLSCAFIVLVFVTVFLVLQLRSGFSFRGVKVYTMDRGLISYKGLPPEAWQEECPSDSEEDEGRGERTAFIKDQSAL

## C[C@H](N)C(=O)N[C@@H](CCCN=C(N)N)C(=O)c1nc2ccccc2s1
[1]
  Ki: 1.4 nM

## N=C(N)NCCC[C@H](NC(=O)CNC(=O)[C@@H](N)CCC(=O)O)C(=O)CCl (H-Glu-Gly-Arg-CH2Cl)
[2]
  inhibition: Active

## C[C@H](NC(=O)[C@H](CCC(N)=O)NC(=O)[C@@H](N)CCCNC(=N)N)C(=O)N[C@@H](CCCNC(=N)N)C(=O)c1nc2ccccc2s1
Furin (Homo sapiens)
  inhibition: inactive
[3]
  Ki: 3.3 nM
Prothrombin
  Ki: 637 nM
[4]
  Ki: 8.4 nM
Trypsin
  Ki: 0.97 nM
[5]
  inhibition: Active

## C[C@H](NC(=O)[C@H](CCC(N)=O)NC(=O)[C@@H](N)CCCNC(=N)N)C(=O)N[C@@H](CCCNC(=N)N)C(O)c1nc2ccccc2s1 (mixture of isomers)
[6]
  Ki: 6120 nM

## N=C(N)NCCC[C@H](N)C(=O)c1nc2ccccc2s1
[6]
  Ki: 457 nM
